Measurements from patent publication US5124327A, “HIV reverse transcriptase” (Merck & Co., Inc., priority 1991, dated 1992).

Legend:
[1] = target: T1, recombinant HIV reverse transcriptase (HIV RTR) (Human immunodeficiency virus type 1 group M subtype B, UniProt P04585); assay: Reverse transcriptase assay: incorporation of tritiated dGMP into acid-precipitable cDNA; assay type: biochemical
T1 construct: recombinant HIV reverse transcriptase (HIV RTR)
Method: The assay measures the incorporation of tritiated deoxyguanosine monophosphate by recombinant HIV reverse transcriptase (HIV RTR) (or other RT) into acid-precipitable cDNA at the Km values of dGTP and poly r(C).oligo d(G)12-18.
Thirty uL of a reaction mixture containing equal volumes of: 500 mM Tris.HCl (pH 8.2), 300 mM MgCl2, 1200 mM KCl, 10 mM DTT, 400 μg/mL poly r(c).oligo d(G) [prepared by dissolving 1.5 mg (25 U) poly r(C).oligo d(G) in 1.5 ml sterile distilled H2 O and diluting to 400 μg/ml], 0.1 μCi/μl [^3 H] dGTP, 160 μM dGTP, was added to 10 μl sterile distilled H2 O, 2.5 μl of potential inhibitor and 10 μL of 5 nM purified HIV RTR in tubes. The mixture was incubated at 37° C. for 45 minutes.
After incubation is complete, the tubes were cooled in ice for 5 minutes. Ice-cold 13% TCA containing 10 mM NaPPi (200 μl) are added and the mixture incubated on ice for 30 minutes. The precipitated cDNA is removed by filtration using presoaked glass filters [TCA, NaPPi ]. The precipitate is then washed with 1N HCl, 10 mM NaPPi. The filter discs are then counted in a scintillation counter.
Under these conditions [dGTP] and poly r(C).oligo d(G)12-18 each are approximately equal to the appropriate Km value. Approximately 5-6,000 cpm of [^3 H] GMP are incorporated into acid-precipitable material. The RT reaction is concentration- and time-dependent. […]

[2] = test system: HIV-1 strain IIIb; assay: Inhibition of virus spread in HIV-infected MT-4 cells (p24 antigen); assay type: cell-based; conditions: Human immunodeficiency virus 1, IIIB, MT4, 72 h, concentration giving greater than 95% reduction in p24 antigen production relative to untreated controls, 3 days incubation, read-out: cell culture inhibitory concentration (CIC95)
Method: MT cells were infected at Day O at a concentration of 250,000 per ml with a 1:2000 dilution of HIV-1 strain IIIb stock (final 125 pg p24/ml; sufficient to yield ≤1% infected cells on day 1 and 25-100% on day 4). Cells were infected and grown in the following medium: RPMI 1640 (Whittaker BioProducts), 10% inactivated fetal bovine serum, 4 mM glutamine (Gibco Labs) and 1:100 Penicillin-Streptomycin (Gibco Labs).
The mixture was incubated overnight at 37° C. in 5% CO2 atmosphere.
Serial two-fold dilutions of compound were prepared in cell culture medium. At Day 1, aliquots of 125 μl of compound were added to equal volumes of HIV-infected MT-4 cells (50,000 per well) in a 96-well microtiter cell culture plate. Incubation was continued for 3 days at 37° C. in 5% CO2 atmosphere.
Using a multichannel pipettor, the settled cells were resuspended and a 125 μl harvested into a separate microtiter plate. […]
The concentration of HIV p24 antigen was measured by an enzyme immunoassay,described as follows. Aliquots of p24 antigen to be measured were added to microwells coated with a monoclonal antibody specific for HIV core antigen. […]
The cell culture inhibitory concentration (ClC95) for each compound is defined as that concentration which inhibited by greater than 95% the spread of infection, as assessed by a greater than 95% reduction in p24 antigen production relative to untreated controls.

Compound: [O-][S+](Cc1[nH]c2ccccc2c1Sc1ccccc1)c1ccccc1 (stereo not drawn) [compound A, 2-Phenylsulfinylmethyl-3-phenylthioindole]
- IC50 ([1]; [dGTP] and poly r(C).oligo d(G)12-18 at approximately Km, 37° C., 45 minutes, read-out: calculated IC50): ~60 nM
- incorporation of tritiated deoxyguanosine monophosphate into acid-precipitable cDNA ([1]; at the Km values of dGTP and poly r(C).oligo d(G)12-18): inhibits this incorporation
- IC95 [2]: ~100 nM
